“And” between values parts separate entries of the source, which are not always exact repeats. Identical values can stand only once. Like-named read-outs stand apart in the source and are kept apart here.
Legend:
Vero-E6 cells = experiment: cells; type: cell-based; settings: Chlorocebus sabaeus
CaCo2 cells = settings: 10 μM in-assay concentration; ENZO library; amiodarone as positive control
A549 cells = experiment: PLD assay of predicted ENZO library compounds in A549 cells; settings: Homo sapiens, A549, read-out: PLD effect % in A549
A549-ACE2 cells = experiment: cells; type: cell-based; settings: A549-ACE2, 24 h, read-out: PLD_Effect(%) A549-ACE2
SARS-CoV-2 [1] = settings: 10 µM; cited from earlier work
SARS-CoV-2 [2] = settings: Caco-2, 20 µM; cited from earlier work
[3] = cited from earlier work
[4] = Vero C1008, 24 h, read-out: PLD effect % in Vero-E6
[5] = value is the negative log10 of mol/L

| SMILES | activation at 10 µM (Vero-E6 cells; [4]) [%] | PLD effect % in CaCo2 (CaCo2 cells) [%] | activation at 10 µM (A549 cells) [%] | further results |
| --- | --- | --- | --- | --- |
| CNCC[C@@H](Oc1ccccc1C)c1ccccc1 [Atomoxetine] | 27.7 | 0.7 | 70.9 |  |
| CN1CCCC(n2nc(Cc3ccc(Cl)cc3)c3ccccc3c2=O)CC1 (stereo not drawn) [Azelastine] | 81.7 | 36.5 | 89.8 |  |
| CN(C)CCCN1c2ccccc2Sc2ccc(Cl)cc21 [Chlorpromazine] | 116 | 67.1 | 80.8 |  |
| C[C@@H](NCCCc1cccc(C(F)(F)F)c1)c1cccc2ccccc12 [Cinacalcet] | 43 | 20.9 | 105 |  |
| CN1CCC[C@@H]1CCO[C@](C)(c1ccccc1)c1ccc(Cl)cc1 [Clemastine] | 30.1 | 6.9 | 50.4 |  |
| CN(C)CCCN1c2ccccc2CCc2ccc(Cl)cc21 [Clomipramine] | 70.9 | 74.6 | 66.2 |  |
| CNCC[C@H](Oc1cccc2ccccc12)c1cccs1 [Duloxetine] | 95.9 | 84.9 | 108 |  |
| CNCCC(Oc1ccc(C(F)(F)F)cc1)c1ccccc1 (stereo not drawn) [Fluoxetine, reference compound] | 111 |  | 108 |  |
| OCCN1CCN(CCCN2c3ccccc3Sc3ccc(C(F)(F)F)cc32)CC1 [Fluphenazine] | 90.3 | 95.4 | 77.4 |  |
| CN(C/C=C/c1ccccc1)Cc1cccc2ccccc12 [Naftifine] | -1.6 | −3.3 | 7.5 |  |
| CC(CN1c2ccccc2Sc2ccccc21)N(C)C (stereo not drawn) [Promethazine] | 90.7 | 37.8 | 81.9 |  |
| CSc1ccc2c(c1)N(CCC1CCCCN1C)c1ccccc1S2 (stereo not drawn) [Thioridazine] | 44.7 | 22.7 | 33.5 |  |
| CN1CCN(CCCN2c3ccccc3Sc3ccc(C(F)(F)F)cc32)CC1 [Trifluoperazine] | 102 | 63.2 | 97.8 |  |
| COCC(=O)O[C@]1(CCN(C)CCCc2nc3ccccc3[nH]2)CCc2cc(F)ccc2[C@@H]1C(C)C [mibefradil, reference compound] |  |  |  | activation at 10 µM (Vero-E6 cells; Vero C1008, 24 h, read-out: PLD_Effect(%) VERO-E6): 88.2%; activation at 5 µM (Vero-E6 cells; Vero C1008, 24 h, read-out: PLD Effect in % 5 µM): 62%; activation at 10 µM (Vero-E6 cells; Vero C1008, 24 h, read-out: PLD Effect in % 10 µM): 80.5%; activation at 20 µM (Vero-E6 cells; Vero C1008, 24 h, read-out: PLD Effect in % 20 µM): 2.41%; EC50 (Vero-E6 cells; Vero C1008, read-out: PLD EC50): 2450 nM; activation at 10 µM (A549-ACE2 cells): 97.4%; Vero-E6 CPE inhibition % (SARS-CoV-2 [1]): -0.26; CaCo2 CPE inhibition % (SARS-CoV-2 [2]): 52.45%; pchembl_value (type AC50), Dopamine D3 receptor [3]: 6.08; pchembl_value (type AC50), Mu opioid receptor [3]: 6.01; pchembl_value (type AC50), Serotonin 1a (5-HT1a) receptor [3]: 6.13; AC50 ([3]; read-out: AC50 (value), Dopamine D3 receptor): 825 nM; AC50 ([3]; read-out: AC50 (value), Mu opioid receptor): 979 nM; AC50 ([3]; read-out: AC50 (value), Serotonin 1a (5-HT1a) receptor): 746 nM; IC50 ([3]; read-out: IC50 (value), Voltage-gated L-type calcium channel alpha-1C subunit): 250 nM; pchembl_value (type IC50), Voltage-gated L-type calcium channel alpha-1C subunit [3, 5]: 6.60; pchembl_value (type IC50), Voltage-gated T-type calcium channel alpha-1G subunit [3, 5]: 6.00 and 7.19; pchembl_value (type IC50), Voltage-gated T-type calcium channel alpha-1H subunit [3, 5]: 6.00 and 6.89; pchembl_value (type IC50), Voltage-gated T-type calcium channel alpha-1I subunit [3, 5]: 6.90 and 6.00 and 6.89 |
